Entries after “also recorded” stand apart in the source; their conditions may differ. Where two headings read alike, the source gives them in different places.
What was measured:
[1] = system: GABAA receptors; settings: cited from earlier work
[2] = system: GABAA receptors; experiment: Monosynaptic IPSC, whole-cell patch clamp of dentate granule cells of rat hippocampal slices (Molnár & Nadler, 2000); format: cell-based
Description: FIGS. 25A-25B illustrate CNB-GABA depressed in a concentration-dependent manner the monosynaptic IPSC evoked by stimulation of the molecular layer as was observed by Molnár & Nadler, 2000. Referring to FIGS. 2A-25B, stimuli were delivered every 30 s. […] FIG. 25B illustrates cumulative concentration-response curve. Referring to FIG. 25B, the IC for CNB-GABA was essentially the same in the absence (28±9 mM, mean±S.D., n=5) and presence (32±13 mM, mean±S.D., n=4) of the GABAB receptor antagonist CGP 55845A. (Molnár & Nadler, 2000 European Journal of Pharmacology, 391, 255-262, which is incorporated herein by reference as if fully set forth).
FIG. 26 illustrates whole-cell patch clamp recordings from dentate granule cells of rat hippocampal slices reported by Molnár & Nadler, 2000. […] Holding potential of −80 mV. (Molnár & Nadler, 2000 European Journal of Pharmacology, 391, 255-262, which is incorporated herein by reference as if fully set forth, which is incorporated herein by reference as if fully set forth). […] FIG. 27 illustrates summary of the amplitudes of the current evoked by puff of 100 μM GABA and caged compounds around the soma reported by Matsuzaki et al., 2010. The amplitude was normalized to the mean current that was induced by GABA application alone. Left panel illustrates control (n=7); +10 mM CNI-GABA (n=7). […]

[3] = at 24 hr; prior report; cited from earlier work
[4] = Quantum yield of photolysis; format: physicochemical; settings: 254 nm light
Description: Quantum yield was a more difficult characteristic to determine. Most published routes of determining quantum yield rely on exposing the compound to a known amount of light and calculating the percent conversion of caged compound to substrate. However, this often requires laser sources and equipment beyond the scope of available facilities. Therefore, it was necessary to develop a way to assess quantum yield with a more practical method. As an alternative, quantum yield was determined by exposing a compound to light alongside a caged compound of known quantum yield. The percent conversion to product of both can be determined, and quantum yield of the unknown caged compound can be calculated using the known quantum yield of the standard.
This method was employed using single-caged CNB-GABA, with a quantum yield of 0.14 (Matsuzaki et al., 2010 Nature Chemical Biology, 6, 255-257, which is incorporated herein by reference as if fully set forth). Referring to this figure, GABA backbone is shown in light gray.
Equimolar amounts of single-caged GABA and bis-CNB-GABA were stirred in separate cuvettes in pH 7.0 phosphate buffer solution and exposed to 254 nm light for 16.5 minutes. An internal standard (1,2-dimethoxyethane) of known amount was then added to each solution, and the moles of GABA released from each compound was determined by ^1HNMR. The peaks corresponding to GABA as well as those from the internal standard were then identified and integrated. From this, moles of GABA and percent conversion were calculated for both bis-CNB-GABA and mono-CNB-GABA. FIG. 34 illustrates NMR data used to determine quantum yield. Referring to FIG. 34, the […] on the top illustrates bis-CNB-GABA before light exposure. Arrows denote methylene peaks of bis-CNB-GABA. Integrated peaks in each spectrum correspond to di-methoxyethane, used as an internal standard. […]
Quantum yield was determined by uncaging bis-CNB-GABA alongside a caged compound of known quantum yield (mono-CNB-GABA, QY=0.16, from Invitrogen). […]

Row | Compound | effect on GABA-evoked currents ([1]; 200 μM) | IC50 ([1]; Molnár & Nadler, 2000, read-out: IC50, suppression of GABA-evoked IPSC currents) | IC50 ([1]; Table 2, O-CNB-GABA in hippocampal dentate neurons, read-out: IC50 in blocking synaptic GABAA currents) | activity at GABA receptors before photolysis [1] | concentration required to generate 33% reduction in response [2] | IC33 ([2]; Table 1, calculated, q=0.33, in mM) | conversion in the dark [3] | quantum yield ([4]; pH 7.0 phosphate buffer, relative to CNB-GABA (0.14)) | quantum yield at the N-position ([4]; relative to mono-O-CNB-GABA) | quantum yield at the O-position ([4]; relative to mono-O-CNB-GABA)
1 | NCCCC(=O)OC(C(=O)O)c1ccccc1[N+](=O)[O-] (stereo not shown) [mono-CNB-GABA] | reversibly eliminated | 28 µM | 28 µM | antagonize GABA receptors; also recorded: antagonist of GABAA receptors | 14 µM | 0.014 | < 1% | – | – | –
2 | O=C(CCCNC(C(=O)O)c1ccccc1[N+](=O)[O-])OC(C(=O)O)c1ccccc1[N+](=O)[O-] (stereo not shown) [bis-CNB-GABA, 2-((4-(Carboxy(2-nitrophenyl)methoxy)-4-oxobutyl)amino)-2-(2-nitrophenyl)acetic acid] | – | – | – | – | – | – | – | 0.07 | 0.032 | 0.15
